The structures appear in SMILES notation.

The test system of experiment [1] is constitutive active colorectal cancer cell (CRC) Wnt pathway (HCT116-TOP). Kind of experiment: Cellular reporter assay, HCT116 Super TopFlash (TOP), constitutive active Wnt pathway. Format: cell-based. To be noted: Homo sapiens, HCT-116; HCT116 Super TopFlash reporter cells, luciferase expression, 36 hours incubation, dilution series 50 μM to 15 nM. How it is done:
In order to discover and characterize small molecules which inhibit the constitutive active colorectal cancer cell (CRC) Wnt pathway, a cellular reporter assay was employed. The corresponding assay cell was generated by transfection of the colorectal cancer cell line HCT116 (ATCC, #CCL-247) with the Super TopFlash vector (Morin, Science 275, 1997, 1787-1790; Molenaar et al., Cell 86 (3), 1996, 391-399). The HCT116 cell line is cultivated at 37° C. and 5% CO2 in DMEM/F-12 (Life Technologies, #11320-074), supplemented with 2 mM glutamine, 20 mM HEPES, 1.4 mM pyruvate, 0.15% Na-bicarbonate and 10% foetal bovine serum (GIBCO, #10270), this cancer cell line is pathophysiological relevant since it carries a deletion of position S45 in the β-catenin gene, leading to constitutive active Wnt signaling. Stable transfectants were generated by cotransfection with pcDNA3 and selection of stable transfected cells with 1 mg/ml G418.
(§1) In preparation of the assay, the two cell lines were plated 24 hours before at 10000 cells per well of a 384 micro titre plate (MTP) in 30 μL growth medium. Selective inhibitory activity for small molecules on the mutated Wnt pathway was determined after parallel incubation of both (TOP and FOP) HCT116 reporter cell lines with a compound dilution series from 50 μM to 15 nM in steps of 3.16-fold dilutions in CAFTY buffer (130 mM NaCI, 5 mM KCI, 20 mM HEPES, 1 mM MgCl2, 5 mM NaHCO3, pH 7.4) containing 2 mM Ca^2+ and 0.01% BSA. The compounds were thereby serially prediluted in 100% DMSO and thereafter in addition 50 fold into the CAFTY compound dilution buffer (described above). From this dilution 10 μL were added to the cells in 30 μL growth medium and incubated for 36 hours at 37° C. and 5% CO2. Thereafter luciferase assay buffer (1:1 mixture of luciferase substrate buffer (20 mM Tricine, 2.67 mM MgSO4, 0.1 mM EDTA, 4 mM DTT, 270 μM Coenzyme A, 470 μM Luciferin, 530 μM ATP, ph adjusted to pH 7.8 with a sufficient volume of 5M NaOH) and Triton buffer (30 mL Triton X-100, 115 mL glycerol, 308 mg Dithiothreitol, 4.45 g Na2HPO4. 2 H2O, 3.03 g TRIS HCl, ad 1I H2O, pH 7.8) was added as equal volume to the compound solution on the cells to determine luciferase expression as a measure of Wnt signaling activity in a luminometer.
A general note: In a reporter assay the amount or activity of a reporter protein is the signal.

For experiment [2], the system named is HCT116-FOP. Description: Control reporter assay, HCT116 cells with FOP control vector (non-functional TCF elements). Format: cell-based. To be noted: Homo sapiens, HCT-116, luciferase expression, 36 hours incubation, dilution series 50 μM to 15 nM, read-out: HCT116-FOP IC50 [M] mol/L]. How it is done: In a parallel approach, HCT116 cells were cotransfected with the FOP control vector and pcDNA3. The FOP vector is identical to the TOP construct, but it contains instead of functional TCF elements a randomized, non-functional sequence. For this transfection a stable transfected cell line was generated as well.
as §1

Regarding `CN1CCN(CC(=O)Nc2cc(C(=O)Nc3nnc(C4CCCCC4)s3)ccc2OC(F)(F)F)CC1` [Example 5, N-(5-cyclohexyl-1,3,4-thiadiazol-2-yl)-3-{[(4-methylpiperazin-1-yl)pacetyl]amino}-4-(trifluoromethoxy)benzamide], the results for the IC50 in experiment [1] and in experiment [2] were 270 nM and no less than 5e-05 M, respectively.

Values taken from patent publication US20180044306A1, “1,3,4-THIADIAZOL-2-YL-BENZAMIDE DERIVATIVES AS INHIBITORS OF THE WNT SIGNALLING PATHWAY” (Bayer Pharma Aktiengesellschaft, priority 2015, published 2018).
